Consider 2 compounds from paper PMC6669564, “Cytotoxic Sesquiterpenoid Quinones and Quinols, and an 11-Membered Heterocycle, Kauamide, from the Hawaiian Marine Sponge Dactylospongia elegans” (Marine Drugs, 2019).

The assay has as its target β-secretase 1 (BACE1) (Homo sapiens, UniProt P56817). In words: HitHunter BACE1 enzyme fragment complementation chemiluminescence assay, […] h incubation, dose response. Format: biochemical.

β-secretase 1 (BACE1), sequence (P56817 46-457): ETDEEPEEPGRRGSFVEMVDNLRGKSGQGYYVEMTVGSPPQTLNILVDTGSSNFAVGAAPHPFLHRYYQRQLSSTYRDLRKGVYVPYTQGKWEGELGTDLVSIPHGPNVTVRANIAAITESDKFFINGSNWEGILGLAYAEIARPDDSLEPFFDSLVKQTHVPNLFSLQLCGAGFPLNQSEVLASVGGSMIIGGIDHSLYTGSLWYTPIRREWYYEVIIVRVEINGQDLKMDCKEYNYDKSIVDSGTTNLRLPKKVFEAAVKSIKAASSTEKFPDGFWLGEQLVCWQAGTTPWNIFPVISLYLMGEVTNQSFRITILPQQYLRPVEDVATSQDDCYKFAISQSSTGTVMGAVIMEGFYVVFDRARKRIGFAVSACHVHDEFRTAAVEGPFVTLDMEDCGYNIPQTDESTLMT

In the case of `C=C1CCC[C@H]2[C@](C)(CC3=C(O)C(=O)C=C(OC)C3=O)[C@@H](C)CC[C@]12C` [compound 1, ilimaquinone], the midpoint of inhibition, the IC50, lay at 65 µM.

The compound `C=C1CCC[C@H]2[C@](C)(CC3=C(O)C(=O)C=C(N)C3=O)[C@@H](C)CC[C@]12C` [compound 3, smenospongine] yielded a 50% inhibitory concentration (IC50) of 78 µM.

Broadly, the IC50 is the concentration at which inhibition is half-maximal. High values mean a need for much substance, low ones inhibition by little substance.
